Data reported in the supplement of paper PMC4862054.

Key:
Settings in all cases: incubation time: 72 h
[1] = test system: Hs578T; test: normalised viability (% of control), CellTiter-Blue; higher = more viable cells (about 100 = DMSO control)
Procedure, shortened: (§1)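 Each entry is normalised viability at a single listed concentration within a series. It comes from breast cancer cell lines incubated 72 h with compound in 384-well plates, then measured with CellTiter-Blue fluorescence at 560/590 nm. Every plate was normalised between vehicle (100) and a positive kill control (0).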

[2] = test system: BT-549; test: as above
Procedure, shortened: as §1

[3] = test system: MDA-MB-231; test: as above
Procedure, shortened: as §1

[4] = test system: DU-4475; test: as above
Procedure, shortened: as §1

[5] = test system: CAL-148; test: as above
Procedure, shortened: as §1

[6] = test system: MDA-MB-468; test: as above
Procedure, shortened: as §1

[7] = test system: MDA-MB-453; test: as above
Procedure, shortened: as §1

[8] = test system: CAL-120; test: as above
Procedure, shortened: as §1

[9] = test system: MFM-223; test: as above
Procedure, shortened: as §1

[10] = test system: HCC1937; test: drug sensitivity score (DSS), CellTox Green (DSS (AUC-based score)); higher = stronger drug effect (viability inhibition or cytotoxicity); extreme values may be limits of the assay
Procedure, shortened: (§2)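 Compound was dispensed into 384-well plates at 5 concentrations in 10-fold steps spanning a 10,000-fold range chosen for each compound, and 20 µl of breast cancer cell suspension was added before 72 h of incubation. CellTox Green fluorescence was read at 485/520 nm, followed by CellTiter-Glo luminescence after 10 min at room temperature. Values on each plate were normalised to 0.1 % DMSO and a positive kill control. The drug sensitivity score came from the area under the fitted dose-response curve.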

[11] = test system: MCF-10A; test: as above
Procedure, shortened: as §2

[12] = test system: HDQ-P1; test: as above
Procedure, shortened: as §2

[13] = test system: Hs578T; test: as above
Procedure, shortened: as §2

[14] = test system: BT-549; test: as above
Procedure, shortened: as §2

[15] = test system: MDA-MB-231; test: as above
Procedure, shortened: as §2

[16] = test system: MDA-MB-436; test: as above
Procedure, shortened: as §2

[17] = test system: DU-4475; test: as above
Procedure, shortened: as §2

[18] = test system: BT-474; test: as above
Procedure, shortened: as §2

[19] = test system: CAL-148; test: as above
Procedure, shortened: as §2

[20] = test system: MDA-MB-468; test: as above
Procedure, shortened: as §2

[21] = test system: HCC1599; test: as above
Procedure, shortened: as §2

[22] = test system: MDA-MB-453; test: as above
Procedure, shortened: as §2

[23] = test system: HCC1143; test: as above
Procedure, shortened: as §2

[24] = test system: CAL-85-1; test: as above
Procedure, shortened: as §2

[25] = test system: CAL-51; test: as above
Procedure, shortened: as §2

Q: Which normalised viability ([1]; 1 nM) does the source give for `CCNC(=O)c1noc(-c2cc(C(C)C)c(O)cc2O)c1-c1ccc(CN2CCOCC2)cc1` [NVP-AUY922] here?
A: 110%

Q: What about the normalised viability ([1]; 100 nM) of the same compound?
A: 44.1%

Q: What about the normalised viability ([1]; 1000 nM) of the same compound?
A: 37.2%

Q: And the normalised viability ([2]; 1 nM)?
A: 113%

Q: What about the normalised viability ([2]; 100 nM) of the same compound?
A: 29.3%

Q: And the normalised viability ([2]; 1000 nM)?
A: 31.7%

Q: What about the normalised viability ([3]; 1 nM) of the same compound?
A: 140%

Q: And the normalised viability ([3]; 100 nM)?
A: 39.1%

Q: What about the normalised viability ([3]; 1000 nM) of the same compound?
A: 31%

Q: And the normalised viability ([4]; 0.3 nM)?
A: 114%

Q: And the normalised viability ([4]; 3 nM)?
A: 109%

Q: And the normalised viability ([4]; 10 nM)?
A: 87.6%

Q: What about the normalised viability ([5]; 0.3 nM) of the same compound?
A: 98.7%

Q: What about the normalised viability ([5]; 3 nM) of the same compound?
A: 108%

Q: And the normalised viability ([5]; 10 nM)?
A: 112%

Q: And the normalised viability ([6]; 1 nM)?
A: 106%

Q: What about the normalised viability ([6]; 100 nM) of the same compound?
A: 27.3%

Q: What about the normalised viability ([6]; 1000 nM) of the same compound?
A: 23.3%

Q: What about the normalised viability ([7]; 0.3 nM) of the same compound?
A: 124%

Q: And the normalised viability ([7]; 3 nM)?
A: 98%

Q: And the normalised viability ([7]; 10 nM)?
A: 83.2%

Q: What about the normalised viability ([8]; 1 nM) of the same compound?
A: 101%

Q: And the normalised viability ([8]; 100 nM)?
A: 18.9%

Q: And the normalised viability ([8]; 1000 nM)?
A: 17.1%

Q: What about the normalised viability ([9]; 1 nM) of the same compound?
A: 97.4%

Q: What about the normalised viability ([9]; 100 nM) of the same compound?
A: 26.1%

Q: What about the normalised viability ([9]; 1000 nM) of the same compound?
A: 25.4%

Q: And the drug sensitivity score [10]?
A: 0.92

Q: And the drug sensitivity score [11]?
A: 13.6

Q: And the drug sensitivity score [12]?
A: 6

Q: What about the drug sensitivity score [13] of the same compound?
A: 6.88

Q: What about the drug sensitivity score [14] of the same compound?
A: 0

Q: And the drug sensitivity score [15]?
A: 12.6

Q: What about the drug sensitivity score [16] of the same compound?
A: 0

Q: What about the drug sensitivity score [17] of the same compound?
A: 5.69

Q: And the drug sensitivity score [18]?
A: 3.93

Q: And the drug sensitivity score [19]?
A: 12.7

Q: What about the drug sensitivity score [20] of the same compound?
A: 0

Q: What about the drug sensitivity score [21] of the same compound?
A: 0

Q: What about the drug sensitivity score [22] of the same compound?
A: 0.086

Q: What about the drug sensitivity score [23] of the same compound?
A: 0

Q: And the drug sensitivity score [24]?
A: 9.49

Q: What about the drug sensitivity score [25] of the same compound?
A: 6.99

Q: What does the source list for `Cc1nc(C(=O)NCC(=O)O)c(O)c2ccc(Oc3ccccc3)cc12` [FG-4592]?
A: drug sensitivity score [10]: 0; drug sensitivity score [11]: 0; drug sensitivity score [12]: 0; drug sensitivity score [13]: 0; drug sensitivity score [14]: 0; drug sensitivity score [15]: 0; drug sensitivity score [16]: 0; drug sensitivity score [17]: 0; drug sensitivity score [18]: 0; drug sensitivity score [19]: 0; drug sensitivity score [20]: 0; drug sensitivity score [21]: 0; drug sensitivity score [22]: 0; drug sensitivity score [23]: 0; drug sensitivity score [24]: 0; drug sensitivity score [25]: 0

Q: `CC1(COc2ccc3c(c2)ncn3-c2ccc3cccc(N4CCC(N)CC4)c3n2)COC1` [Crenolanib] was tested. Which drug sensitivity score [10] did it give?
A: 0

Q: And the drug sensitivity score [11]?
A: 5.3

Q: And the drug sensitivity score [12]?
A: 7.06

Q: What about the drug sensitivity score [13] of the same compound?
A: 0

Q: And the drug sensitivity score [14]?
A: 4.07

Q: And the drug sensitivity score [15]?
A: 6.39

Q: And the drug sensitivity score [16]?
A: 18.5

Q: What about the drug sensitivity score [17] of the same compound?
A: 0.612

Q: And the drug sensitivity score [18]?
A: 5.99

Q: What about the drug sensitivity score [19] of the same compound?
A: 6.78

Q: What about the drug sensitivity score [20] of the same compound?
A: 0

Q: And the drug sensitivity score [21]?
A: 0

Q: And the drug sensitivity score [22]?
A: 0

Q: And the drug sensitivity score [23]?
A: 1.14

Q: And the drug sensitivity score [24]?
A: 6.6

Q: And the drug sensitivity score [25]?
A: 4.42

Q: How did the normalised viability ([1]; 10 nM) turn out when `CC1(C)CCC(c2ccc(Cl)cc2)=C(CN2CCN(c3ccc(C(=O)NS(=O)(=O)c4ccc(N[C@H](CCN5CCOCC5)CSc5ccccc5)c(S(=O)(=O)C(F)(F)F)c4)cc3)CC2)C1` [Navitoclax] was run?
A: 91.8%

Q: What about the normalised viability ([1]; 1000 nM) of the same compound?
A: 92.2%

Q: What about the normalised viability ([1]; 10000 nM) of the same compound?
A: 88.8%

Q: And the normalised viability ([2]; 10 nM)?
A: 80.7%

Q: What about the normalised viability ([2]; 1000 nM) of the same compound?
A: 79.7%

Q: And the normalised viability ([2]; 10000 nM)?
A: 78.1%

Q: What about the normalised viability ([3]; 10 nM) of the same compound?
A: 74.7%

Q: What about the normalised viability ([3]; 1000 nM) of the same compound?
A: 55.7%

Q: And the normalised viability ([3]; 10000 nM)?
A: 30.6%

Q: And the normalised viability ([4]; 3 nM)?
A: 88.7%

Q: What about the normalised viability ([4]; 30 nM) of the same compound?
A: 72.9%

Q: What about the normalised viability ([4]; 100 nM) of the same compound?
A: 70.3%

Q: What about the normalised viability ([5]; 3 nM) of the same compound?
A: 85.1%

Q: And the normalised viability ([5]; 30 nM)?
A: 88.2%

Q: And the normalised viability ([5]; 100 nM)?
A: 89.2%

Q: And the normalised viability ([6]; 10 nM)?
A: 91.9%

Q: And the normalised viability ([6]; 1000 nM)?
A: 81.6%

Q: And the normalised viability ([6]; 10000 nM)?
A: 71.2%

Q: And the normalised viability ([7]; 3 nM)?
A: 104%

Q: And the normalised viability ([7]; 30 nM)?
A: 88.5%

Q: What about the normalised viability ([7]; 100 nM) of the same compound?
A: 74.9%

Q: And the normalised viability ([8]; 10 nM)?
A: 69.9%

Q: And the normalised viability ([8]; 1000 nM)?
A: 64.7%

Q: And the normalised viability ([8]; 10000 nM)?
A: 30.5%

Q: What about the normalised viability ([9]; 10 nM) of the same compound?
A: 77.2%

Q: And the normalised viability ([9]; 1000 nM)?
A: 68.7%

Q: And the normalised viability ([9]; 10000 nM)?
A: 40.6%

Q: What about the drug sensitivity score [10] of the same compound?
A: 0

Q: And the drug sensitivity score [12]?
A: 17.2

Q: What about the drug sensitivity score [13] of the same compound?
A: 0

Q: And the drug sensitivity score [14]?
A: 0

Q: And the drug sensitivity score [15]?
A: 21.5

Q: And the drug sensitivity score [16]?
A: 0

Q: And the drug sensitivity score [17]?
A: 0

Q: And the drug sensitivity score [18]?
A: 2.28

Q: What about the drug sensitivity score [19] of the same compound?
A: 4.49

Q: What about the drug sensitivity score [20] of the same compound?
A: 6.68

Q: What about the drug sensitivity score [21] of the same compound?
A: 0

Q: What about the drug sensitivity score [22] of the same compound?
A: 0

Q: What about the drug sensitivity score [23] of the same compound?
A: 0

Q: What about the drug sensitivity score [24] of the same compound?
A: 3.45

Q: What about the drug sensitivity score [25] of the same compound?
A: 8.56

Q: With `CC[C@H](CO)Nc1nc(NCc2ccccc2)c2ncn(C(C)C)c2n1` [Seliciclib] as the compound, how does the drug sensitivity score [10] read?
A: 0

Q: And the drug sensitivity score [11]?
A: 0

Q: What about the drug sensitivity score [12] of the same compound?
A: 0

Q: And the drug sensitivity score [13]?
A: 1.26

Q: What about the drug sensitivity score [14] of the same compound?
A: 0

Q: What about the drug sensitivity score [15] of the same compound?
A: 0

Q: And the drug sensitivity score [16]?
A: 0

Q: And the drug sensitivity score [17]?
A: 0

Q: And the drug sensitivity score [18]?
A: 0

Q: And the drug sensitivity score [19]?
A: 0

Q: What about the drug sensitivity score [20] of the same compound?
A: 0

Q: What about the drug sensitivity score [21] of the same compound?
A: 0

Q: And the drug sensitivity score [22]?
A: 0

Q: What about the drug sensitivity score [23] of the same compound?
A: 0

Q: What about the drug sensitivity score [24] of the same compound?
A: 0

Q: And the drug sensitivity score [25]?
A: 0

Q: Which results are given for `CC(C)(C)c1nc(-c2cccc(NS(=O)(=O)c3c(F)cccc3F)c2F)c(-c2ccnc(N)n2)s1` [Dabrafenib]?
A: drug sensitivity score [10]: 1.11; drug sensitivity score [11]: 0; drug sensitivity score [12]: 1.28; drug sensitivity score [13]: 18.1; drug sensitivity score [14]: 0; drug sensitivity score [15]: 0; drug sensitivity score [16]: 0; drug sensitivity score [17]: 3.29; drug sensitivity score [18]: 0; drug sensitivity score [19]: 1.13; drug sensitivity score [20]: 0; drug sensitivity score [21]: 0; drug sensitivity score [22]: 0; drug sensitivity score [23]: 0; drug sensitivity score [24]: 0; drug sensitivity score [25]: 0

Q: Which results are given for `O=C(O)CNC(=O)c1c(O)c2ccccc2n(Cc2ccccc2)c1=O` [IOX-2]?
A: drug sensitivity score [10]: 0; drug sensitivity score [11]: 0; drug sensitivity score [12]: 3.99; drug sensitivity score [13]: 0; drug sensitivity score [14]: 2.91; drug sensitivity score [15]: 0; drug sensitivity score [16]: 0; drug sensitivity score [17]: 0; drug sensitivity score [18]: 0; drug sensitivity score [19]: 0; drug sensitivity score [20]: 0; drug sensitivity score [21]: 0; drug sensitivity score [22]: 1.5; drug sensitivity score [23]: 0; drug sensitivity score [24]: 0; drug sensitivity score [25]: 0
